The test system of one assay is HeLa. The assay is described as follows: Cytotoxicity against human HeLa cells after 72 hrs by CCK8 assay. Format: functional, cell-based. In general terms: Tetrazolium assays rely on reduction of a dye to a coloured formazan, in cell work by metabolically active cells.
Another assay deals with MCF7. The assay is described as follows: Cytotoxicity against human MCF7 cells after 72 hrs by CCK8 assay. The assay is classed as functional, cell-based. The settings on record: MCF7, 72 h.
The next assay relates to HCT-116. The assay is described as follows: Cytotoxicity against human HCT116 cells after 72 hrs by CCK8 assay. Format: functional, cell-based. The settings on record: HCT-116, 72 h.
In another assay the test system is PANC-1. The assay is described as follows: Cytotoxicity against human PANC1 cells after 72 hrs by CCK8 assay. Format: functional, cell-based. The conditions noted are these: PANC-1, 72 h.
The subject of the next assay is SW1990. The assay is described as follows: Cytotoxicity against human SW1990 cells after 72 hrs by CCK8 assay. The settings on record: SW1990, 72 h. The assay is classed as functional, cell-based.
Another assay concerns HEK293. The assay is described as follows: Inhibition of TNFalpha-stimulated NFkappaB (unknown origin) expressed in HEK293 cells pretreated for 2 hrs followed by TNFalpha stimulation and measured after 6 hrs by luciferase reporter gene assay. Format: cell-based. The settings on record: Homo sapiens. On the technique in general: In a reporter assay the amount or activity of a reporter protein is the signal.

The next assay deals with RAW264.7. Put plainly: Inhibition of LPS-induced nitric oxide production in […] RAW264.7 cells at 2.5 to 20 uM pretreated for 2 hrs followed by LPS-stimulation and measured after 20 hrs by Griess assay. Format: functional, cell-based. A general note: Griess reagent forms a coloured azo dye with nitrite.

Calls of active or inactive are those of the source. The rule behind the calls is not given here.

Among the data in ChEMBL document CHEMBL4145637, “Libertellenones O-S and Eutypellenones A and B, Pimarane Diterpene Derivatives from the Arctic Fungus Eutypella sp. D-1” (J Nat Prod, 2018) are IC50 and inhibition values, retold here.

`C=C[C@@]1(C)CCC2=C(C(=O)O[C@@H]3CC[C@@]4(C)COC(=O)[C@@H]4[C@]23C)[C@H]1O`: the IC50 in the assay with HeLa, in the assay on MCF7, with HCT-116, in the assay with PANC-1 and in the assay with SW1990 was greater than 50 µM throughout.
For `C=C[C@]1(C)C=C2C(=O)C(O)=C3[C@](C)(COC(=O)C(C)C)[C@H](OC(C)=O)C[C@H]4C[C@@]34[C@@]2(O)CC1`, the IC50 with HeLa was determined as 0.7 µM; with MCF7, 1.4 µM; in the assay on HCT-116, 1 µM; in the assay with PANC-1, 1.8 µM; with SW1990, 0.3 µM.
Regarding `C=C[C@]1(C)C=C2C(=O)C(=O)[C@H]3[C@](C)(COC(=O)C(C)C)[C@H](OC(C)=O)C[C@H]4C[C@]43[C@@]2(O)CC1`, the half-maximal inhibitory concentration (IC50) in the assay with HeLa is greater than 50 µM; in the assay on MCF7, greater than 50 µM; in the assay with HCT-116, 29.4 µM; in the assay on PANC-1, greater than 50 µM; in the assay with SW1990, greater than 50 µM.
With `C=C[C@]1(C)C=C2C(=O)C(O)=C3[C@](C)(COC(C)=O)[C@H](OC(C)=O)C[C@H]4C[C@@]34[C@@]2(O)CC1`, the IC50 in the assay with HeLa is 3.1 µM; in the assay on MCF7, 4.1 µM; in the assay with HCT-116, 2.2 µM; in the assay on PANC-1 it was 6 µM; with SW1990 it was 2.4 µM.
For `C=C[C@]1(C)C=C2C(=O)C(O)=C3[C@](C)(COC(=O)CC)[C@H](OC(C)=O)C[C@H]4C[C@@]34[C@@]2(O)CC1` the same measures were 2.6 µM, 2.9 µM, 1.9 µM, 3.6 µM and 1 µM.
For `C=C[C@]1(C)C=C2C(=O)[C@H](O)[C@H]3[C@](C)(COC(=O)C(C)C)[C@H](OC(C)=O)C[C@H]4C[C@]43[C@@]2(O)CC1` the same measures were greater than 50 µM, greater than 50 µM, greater than 50 µM, 26.6 µM and greater than 50 µM.
In the case of `C=C[C@]1(C)C=C2C(=O)C(O)=C3[C@@]4(OC)[C@H](C[C@H](OC(C)=O)[C@]3(C)COC(=O)C(C)C)C[C@]24CC1`, the half-inhibitory concentration (IC50) in the assay on HeLa is 6 µM; with MCF7, 8.3 µM; with HCT-116 it was 8.4 µM; in the assay on PANC-1 it was 7 µM; in the assay on SW1990, 8 µM. For the same molecule, in the assay with HEK293, the inhibition result was “Dose-dependent effect”. Moreover, the inhibition entry in the assay with RAW264.7 was “Active”.
Turning to `C=C[C@]1(C)C=C2C(=O)C(O)=C3[C@](C)(COC(=O)C(C)C)[C@H](O)C[C@H]4C[C@@]34[C@@]2(O)CC1`, the IC50 was found to be 1.2 µM in the assay with HeLa; 1.1 µM with MCF7; 1.3 µM with HCT-116; 2.1 µM in the assay with PANC-1; 0.8 µM with SW1990.
`C=C[C@]1(C)C=C2C(=O)C(O)=C3[C@@]4(O)[C@H](C[C@H](OC(C)=O)[C@]3(C)COC(=O)C(C)C)C[C@]24CC1`: the IC50 with HeLa is 13.1 µM; in the assay with MCF7, 10.7 µM; in the assay with HCT-116, 12.6 µM; in the assay on PANC-1, 12.1 µM; in the assay with SW1990 it was 10.3 µM. Further, in the assay with HEK293, the inhibition entry was “Dose-dependent effect”. For the same molecule, the inhibition entry in the assay on RAW264.7 is “Active”.

In general, IC50 refers to the concentration at which inhibition is half-maximal. Low values mean greater potency in that assay, high ones weaker potency in that assay.
